Source: BigSolDB 2.1

NC(=O)N1c2ccccc2CC(=O)c2ccccc21
solubility (mole fraction)
Conditions	in THF	in acetone	in acetonitrile	in ethanol	in isopropanol	in methanol	in n-butanol	in n-propanol
288.15 K	0.00204	0.00105	0.000641	0.000273	0.000151	0.000534	0.000251	0.000245
293.15 K	0.00217	0.0012	0.000751	0.000322	0.000187	0.000619	0.000309	0.000301
298.15 K	0.00241	0.00134	0.000839	0.000383	0.000217	0.000759	0.000355	0.000358
303.15 K	0.00266	0.00154	0.00103	0.000488	0.000299	0.000907	0.000479	0.000475
308.15 K	0.00308	0.00182	0.00122	0.000617	0.000413	0.00111	0.000617	0.000616
